Assays:
Format in all cases: in vivo
Setaria faberi (SETFA) [1] = test: Pre-emergence herbicidal glasshouse test; details: 250 g/Ha, evaluated after 13 days
Method: (§1) Seeds of a variety of test species are sown in standard soil in pots (Lolium perenne (LOLPE), Setaria faberi (SETFA), Alopecurus myosuroides (ALOMY), Echinochloa crus-galli (ECHCG), Avena fatua (AVEFA)). After cultivation for one day (pre-emergence) or after 8 days cultivation (post-emergence) under controlled conditions in a glasshouse (at 24/16° C., day/night; 14 hours light; 65% humidity), the plants are sprayed with an aqueous spray solution derived from the formulation of the technical active ingredient in acetone/water (50:50) solution containing 0.5% Tween 20 (polyoxyethelyene sorbitan monolaurate, CAS RN 9005-64-5). Compounds are applied at 250 g/h. The test plants are then grown in a glasshouse under controlled conditions in a glasshouse (at 24/16° C., day/night; 14 hours light; 65% humidity) and watered twice daily. After 13 days for pre and post-emergence, the test is evaluated for the percentage damage caused to the plant. The biological activities are shown in the following table on a five point scale (5=80-100%; 4=60-79%; 3=40-59%; 2=20-39%; 1=0-19%). NT=not tested.

Lolium perenne (LOLPE) [2] = test: Pre-emergence herbicidal glasshouse test; details: 250 g/Ha, evaluated after 13 days
Method: as §1

Avena fatua (AVEFA) [3] = test: Pre-emergence herbicidal glasshouse test; details: 250 g/Ha, evaluated after 13 days
Method: as §1

[4] = tested on: Alopecurus myosuroides (ALOMY); test: Pre-emergence herbicidal glasshouse test; details: 250 g/Ha, evaluated after 13 days
Method: as §1

[5] = tested on: Echinochloa crus-galli (ECHCG); test: Pre-emergence herbicidal glasshouse test; details: 250 g/Ha, evaluated after 13 days
Method: as §1

wheat crop plants = test: Crop phytotoxicity comparison, post-emergence; details: post-emergence; for damage to wheat crop compared to prior art compound C1: summary of Table B3
Method: as §1
(§2) Using procedures outlines above, wheat and barley crop plants are treated, post-emergence with compounds A1, A3 or A8 of the present invention or comparator compound C1 (Compound A-38 from WO2014/096289) at the application rates indicated. The compounds were also applied in conjunction with the safener compound cloquintocet-mexyl (CQC) at 50 g/ha.

barley crop plants = test: Crop phytotoxicity comparison, post-emergence; details: post-emergence; for damage to barley crop compared to prior art compound C1: summary of Table B3
Method: as §1, §2

Setaria faberi (SETFA) [6] = test: Post-emergence herbicidal glasshouse test; details: 250 g/Ha, evaluated after 13 days
Method: as §1

Lolium perenne (LOLPE) [7] = test: Post-emergence herbicidal glasshouse test; details: 250 g/Ha, evaluated after 13 days
Method: as §1

Avena fatua (AVEFA) [8] = test: Post-emergence herbicidal glasshouse test; details: 250 g/Ha, evaluated after 13 days
Method: as §1

[9] = tested on: Alopecurus myosuroides (ALOMY); test: Post-emergence herbicidal glasshouse test; details: 250 g/Ha, evaluated after 13 days
Method: as §1

[10] = tested on: Echinochloa crus-galli (ECHCG); test: Post-emergence herbicidal glasshouse test; details: 250 g/Ha, evaluated after 13 days
Method: as §1

[11] = 60 g/ha + safener cloquintocet-mexyl (CQC) at 50 g/ha

Compound | percentage damage caused to the plant, five point scale, SETFA (Setaria faberi (SETFA) [1]) | percentage damage caused to the plant, five point scale, LOLPE (Lolium perenne (LOLPE) [2]) | percentage damage caused to the plant, five point scale, AVEFA (Avena fatua (AVEFA) [3]) | percentage damage caused to the plant, five point scale, ALOMY [4] | percentage damage caused to the plant, five point scale, ECHCG [5] | % phytotoxicity observed, Wheat (wheat crop plants; 30 g/ha) [%] | % phytotoxicity observed, Wheat (wheat crop plants; 60 g/ha) [%] | % phytotoxicity observed, Wheat (wheat crop plants; [11]) [%] | damage to wheat crop compared to prior art compound C1 (wheat crop plants) | % phytotoxicity observed, Barley (barley crop plants; 30 g/ha) [%] | % phytotoxicity observed, Barley (barley crop plants; 60 g/ha) [%] | damage to barley crop compared to prior art compound C1 (barley crop plants) | percentage damage caused to the plant, five point scale, SETFA (Setaria faberi (SETFA) [6]) | percentage damage caused to the plant, five point scale, LOLPE (Lolium perenne (LOLPE) [7]) | percentage damage caused to the plant, five point scale, AVEFA (Avena fatua (AVEFA) [8]) | percentage damage caused to the plant, five point scale, ALOMY [9] | percentage damage caused to the plant, five point scale, ECHCG [10]
CC#Cc1cc(C)c(C2C(=O)CC3(CCN(C(=O)C(C)=NN(C)C)CC3)CC2=O)c(C)c1 [Compound A8, 3-[2-(dimethylhydrazono)propanoyl]-9-(2,6-dimethyl-4-prop-1-ynyl-phenyl)-3-azaspiro[5.5]undecane-8,10-dione] | 5 (5=80-100%) | 5 (5=80-100%) | 5 (5=80-100%) | 5 (5=80-100%) | 5 (5=80-100%) | 0 | 10 | 10 | significantly less damaging | 0 | 0 | significantly less damaging | 5 (5=80-100%) | 5 (5=80-100%) | 5 (5=80-100%) | 5 (5=80-100%) | 5 (5=80-100%)
CC#Cc1cc(C)c(C2C(=O)CC3(CCN(C(=O)C(C)=NOC)CC3)CC2=O)c(C)c1 [Compound A1, 9-(2,6-dimethyl-4-prop-1-ynyl-phenyl)-3-(2-methoxyiminopropanoyl)-3-azaspiro[5.5]undecane-8,10-dione] | 5 (5=80-100%) | 5 (5=80-100%) | 5 (5=80-100%) | 5 (5=80-100%) | 5 (5=80-100%) | 10 | 20 | 0 | significantly less damaging | 20 | 40 | significantly less damaging | 5 (5=80-100%) | 5 (5=80-100%) | 5 (5=80-100%) | 5 (5=80-100%) | 5 (5=80-100%)

— US12161115B2, “Herbicidal compounds” (SYNGENTA CROP PROTECTION AG, priority 2019, dated 2024)
